{
  "source": "patent US7910548B2",
  "about": "“Methods for treating obesity” (Amylin Pharmaceuticals, Inc., priority 1997, dated 2011)",
  "key": {"[1]": {"test": "Measurement of body weight in insulin-using Type II diabetes patients, 4-week study", "format": "in vivo, human", "details": "4 weeks, change from baseline", "protocol": "Study participants were males and females 25 to 78 years of age with a history of Type II diabetes mellitus requiring treatment with insulin for at least 6 months prior to the pre-screening visit. […] The study employed methods described in Thompson et al., Diabetes 46:632-636 (1997). Following a placebo lead-in period, patients were randomized to receive placebo or one of three dose regimens of ^25,28,29Pro-h-amylin (pramlintide) for 4 weeks: 30 μg QID (before breakfast, lunch, dinner and evening snack), 60 μg TID (before breakfast, lunch and dinner) or 60 μg QID (before breakfast, lunch, dinner and evening snack). Throughout the study drug period, patients self-administered four injections of study drug daily, within 15 minutes of each meal and the evening snack. During the double-blind period, patients randomized to pramlintide 60 μg TID administered placebo before the evening snack. Both pramlintide and placebo were administered as separate injections into the subcutaneous tissue of the anterior abdominal wall; the specific site was alternated after each injection. Patients were instructed to remain on their usual diet, insulin and exercise regimens throughout the study, unless otherwise instructed by the investigator, and to abstain from alcoholic beverages prior to all clinic visits."}, "[2]": {"test": "Tritiated glucose gastric emptying assay", "format": "in vivo, rat", "text": "In a phenol red method, which is described in Example 7 below, conscious rats receive by gavage an acoloric gel containing methyl cellulose and a phenol red indicator. Twenty minutes after gavage, animals are anesthetized using halothane, the stomach exposed and clamped at the pyloric and lower esophageal sphincters, removed and opened into an alkaline solution. Stomach content may be derived from the intensity of the phenol red in the alkaline solution, measured by absorbance at a wavelength of 560 nm. In a tritiated glucose method, which is described in Example 8 below, conscious rats are gavaged with tritiated glucose in water. The rats are gently restrained by the tail, the tip of which is anesthetized using lidocaine. Tritium in the plasma separated from tail blood is collected at various timepoints and detected in a beta counter. Test compounds are normally administered about one minute before gavage.\nConscious, non-fasted, Harlan Sprague Dawley rats were restrained by the tail, the tip of which was anesthetized using 2% lidocaine. Tritium in plasma separated from tail blood collected 0, 15, 30, 60, 90 and 120 minutes after gavage was detected in a beta counter."}, "[3]": {"molecular_target": "amylin receptors in membranes of rat basal forebrain (nucleus accumbens and surrounding regions) (rat)", "test": "competition with 125I-rat amylin on rat basal forebrain membranes"}},
  "note": "Bridges are numbered along the chain shown (N, C = ends). Where no end group is shown, it is not given here.",
  "data": [
    {"molecule": "CC[C@H](C)[C@H](NC(=O)[C@@H]1CCCN1C(=O)CNC(=O)[C@H](Cc1ccccc1)NC(=O)[C@H](CC(N)=O)NC(=O)[C@H](CC(N)=O)NC(=O)[C@H](CO)NC(=O)[C@H](CO)NC(=O)[C@H](Cc1c[nH]cn1)NC(=O)[C@@H](NC(=O)[C@H](CC(C)C)NC(=O)[C@H](Cc1ccccc1)NC(=O)[C@H](CC(N)=O)NC(=O)[C@H](C)NC(=O)[C@H](CC(C)C)NC(=O)[C@H](CCCNC(=N)N)NC(=O)[C@H](CCC(N)=O)NC(=O)[C@@H](NC(=O)[C@H](C)NC(=O)[C@@H]1CSSC[C@H](NC(=O)[C@@H](N)CCCCN)C(=O)N[C@@H](CC(N)=O)C(=O)N[C@@H]([C@@H](C)O)C(=O)N[C@@H](C)C(=O)N[C@@H]([C@@H](C)O)C(=O)N1)[C@@H](C)O)C(C)C)C(=O)N[C@@H](CC(C)C)C(=O)N1CCC[C@H]1C(=O)N1CCC[C@H]1C(=O)N[C@H](C(=O)N[C@@H](CC(N)=O)C(=O)N[C@H](C(=O)NCC(=O)N[C@@H](CO)C(=O)N[C@@H](CC(N)=O)C(=O)N[C@H](C(=O)N[C@@H](Cc1ccc(O)cc1)C(N)=O)[C@@H](C)O)C(C)C)[C@@H](C)O", "note": "[Pramlintide, ^25,28,29Pro-h-amylin]", "values": [
      {"measurement": "Body Weight: Change at Week 4, Median", "setting": "[1]; 30 μg QID subcutaneous", "value": -0.45, "unit": "kg"},
      {"measurement": "Body Weight: Change at Week 4, Median", "setting": "[1]; 60 μg QID subcutaneous", "value": -0.45, "unit": "kg"},
      {"measurement": "Body Weight: Change at Week 4, Median", "setting": "[1]; 60 μg TID subcutaneous", "value": -1.05, "unit": "kg"}
    ]},
    {"molecule": "rat amylin", "values": [
      {"measurement": "ED50 derived from the logistic fit (plasma tritium AUC over 30 minutes)", "setting": "[2]; non-fasted Harlan Sprague Dawley rats, subcutaneous 1 minute before gavage", "value": 0.35, "unit": "μg"},
      {"measurement": "Absorption of the label (plasma tritium)", "setting": "[2]; subcutaneous injection, 0.1-100 μg", "value": "dose-dependently slowed and/or delayed the absorption of the label"}
    ]},
    {"molecule": "KDNTATKATQRLANFLVHSSNNFGAILSSTNVGSNTY (lactam 2-7; ends not checked)", "note": "[^2,7Cyclo-[^2Asp, ^7Lys]-h-Amylin]", "values": [
      {"measurement": "IC50", "setting": "[3]", "value": 0.31, "unit": "nM"}
    ]}
  ]
}
